Literature values as cited in patent US20170056386A1, “TOPICAL ANTIFUNGAL COMPOSITION FOR TREATING ONYCHOMYCOSIS” (Polichem SA, priority 2014, published 2017).

Tested on: onychomycosis
Conditions: oral administration

For CN(C/C=C/C#CC(C)(C)C)Cc1cccc2ccccc12 [terbinafine], the “Complete cure (patients)” value is given as 38%.
